From patent publication US7157432B2, “Tetraphenylbacteriochlorin derivatives and compositions containing the same” (San-Ei Gen F.F.I., Inc., priority 2000, dated 2007)

Tested on: HeLa cells
Assay: Phototoxicity test (MTT assay, viability of HeLa cells after irradiation)
Type: cell-based
Details: test compound 5 or 10 μM for two hours, 500 W halogen lamp with filter cutting off light shorter than 500 nm for 8 minutes, MTT after 24 hours
Description: Each of Compounds 1 to 16 was evaluated about its cytotoxicity by viability of HeLa cells using MTT assay (Carmichal, J., W. G. DeGraff, A. F. Gazdar, J. D. Minna and J. B. Mitchell, Cancer Res., 1987, 47, 936–942). HeLa cells (1×10^4 cells/well) were incubated in Dulbecco's modified Eagle's medium (DMEM) containing 10% fetal bovine serum (FBS) on a 96-well plate in 5% CO2 at 37° C. for 24 hours. After washing with phosphate buffered saline (PBS), the cells were incubated in DMEM without serum in the presence of each of the compounds to be tested (5 or 10 μM) for two hours. The cells were washed with PBS and irradiated with a 500 W halogen lamp equipped with a filter cutting off the light shorter than 500 nm wave length for 8 minutes. After 24 hours' incubation, the viability was measured by the MTT assay. HeLa cells without test compound were used as a control. […] The survival ratio of the cells is calculated by the following formula: Cell survival ratio (%)=(OD540 in presence of test compound with irradiation/OD540 in presence of test compound without irradiation)×100. A cell survival ratio of 100% means the absence of cytotoxicity.

SMILES	cytotoxicity when irradiated with light (cell survival ratio, FIG. 2)
OC[C@H]1O[C@@H](Oc2cccc(-c3c4nc(c(-c5cccc(O[C@@H]6O[C@H](CO)[C@@H](O)[C@H](O)[C@H]6O)c5)c5ccc([nH]5)c(-c5cccc(O[C@@H]6O[C@H](CO)[C@@H](O)[C@H](O)[C@H]6O)c5)c5nc(c(-c6cccc(O[C@@H]7O[C@H](CO)[C@@H](O)[C@H](O)[C@H]7O)c6)c6ccc3[nH]6)CC5)CC4)c2)[C@H](O)[C@@H](O)[C@@H]1O [Compound 10, 5,10,15,20-tetrakis[3-(β-D-glucopyranosyloxy)phenyl]-bacteriochlorin]	exhibited cytotoxicity
O[C@@H]1[C@H](Oc2cccc(-c3c4nc(c(-c5cccc(O[C@@H]6OC[C@@H](O)[C@@H](O)[C@@H]6O)c5)c5ccc([nH]5)c(-c5cccc(O[C@@H]6OC[C@@H](O)[C@@H](O)[C@@H]6O)c5)c5nc(c(-c6cccc(O[C@@H]7OC[C@@H](O)[C@@H](O)[C@@H]7O)c6)c6ccc3[nH]6)CC5)CC4)c2)OC[C@@H](O)[C@H]1O [Compound 14, 5,10,15,20-tetrakis[3-(β-D-arabinopyranosyloxy)phenyl]-bacteriochlorin]	exhibited cytotoxicity
O[C@@H]1[C@@H](O)[C@H](Oc2cccc(-c3c4nc(c(-c5cccc(O[C@@H]6OC[C@@H](O)[C@H](O)[C@H]6O)c5)c5ccc([nH]5)c(-c5cccc(O[C@@H]6OC[C@@H](O)[C@H](O)[C@H]6O)c5)c5nc(c(-c6cccc(O[C@@H]7OC[C@@H](O)[C@H](O)[C@H]7O)c6)c6ccc3[nH]6)CC5)CC4)c2)OC[C@H]1O [Compound 16, 5,10,15,20-tetrakis[3-(β-D-xylopyranosyloxy)phenyl]bacteriochlorin]	exhibited cytotoxicity

Tested on: not listed separately
Assay: UV absorption in DMSO at 20° C.
Type: physicochemical
Details: FIG. 1
Text: As clearly shown in FIG. 1, the compounds of the present invention have a strong UV absorption peak around 740 nm. Compounds 3 to 8 and 11 to 16 show an UV absorption pattern similar to that of tetraphenylbacteriochlorin and also have a strong UV absorption peak around 740 nm.

SMILES	strong UV absorption peak
CC(=O)OC[C@H]1O[C@@H](Oc2ccc(-c3c4nc(c(-c5ccc(O[C@@H]6O[C@H](COC(C)=O)[C@@H](OC(C)=O)[C@H](OC(C)=O)[C@H]6OC(C)=O)cc5)c5ccc([nH]5)c(-c5ccc(O[C@@H]6O[C@H](COC(C)=O)[C@@H](OC(C)=O)[C@H](OC(C)=O)[C@H]6OC(C)=O)cc5)c5nc(c(-c6ccc(O[C@@H]7O[C@H](COC(C)=O)[C@@H](OC(C)=O)[C@H](OC(C)=O)[C@H]7OC(C)=O)cc6)c6ccc3[nH]6)CC5)CC4)cc2)[C@H](OC(C)=O)[C@@H](OC(C)=O)[C@@H]1OC(C)=O [Compound 1, 5,10,15,20-tetrakis[4-(2′,3′,4′,6′-tetra-O-acetyl-β-D-glucopyranosyloxy)phenyl]bacteriochlorin]	around 740 nm
CC(=O)OC[C@H]1O[C@@H](Oc2cccc(-c3c4nc(c(-c5cccc(O[C@@H]6O[C@H](COC(C)=O)[C@@H](OC(C)=O)[C@H](OC(C)=O)[C@H]6OC(C)=O)c5)c5ccc([nH]5)c(-c5cccc(O[C@@H]6O[C@H](COC(C)=O)[C@@H](OC(C)=O)[C@H](OC(C)=O)[C@H]6OC(C)=O)c5)c5nc(c(-c6cccc(O[C@@H]7O[C@H](COC(C)=O)[C@@H](OC(C)=O)[C@H](OC(C)=O)[C@H]7OC(C)=O)c6)c6ccc3[nH]6)CC5)CC4)c2)[C@H](OC(C)=O)[C@@H](OC(C)=O)[C@@H]1OC(C)=O [Compound 2, 5,10,15,20-tetrakis[3-(2′,3′,4′,6′-tetra-O-acetyl-β-D-glucopyranosyloxy)phenyl]bacteriochlorin]	around 740 nm
OC[C@H]1O[C@@H](Oc2ccc(-c3c4nc(c(-c5ccc(O[C@@H]6O[C@H](CO)[C@@H](O)[C@H](O)[C@H]6O)cc5)c5ccc([nH]5)c(-c5ccc(O[C@@H]6O[C@H](CO)[C@@H](O)[C@H](O)[C@H]6O)cc5)c5nc(c(-c6ccc(O[C@@H]7O[C@H](CO)[C@@H](O)[C@H](O)[C@H]7O)cc6)c6ccc3[nH]6)CC5)CC4)cc2)[C@H](O)[C@@H](O)[C@@H]1O [Compound 9, 5,10,15,20-tetrakis[4-(β-D-glucopyranosyloxy)phenyl]-bacteriochlorin]	around 740 nm
OC[C@H]1O[C@@H](Oc2cccc(-c3c4nc(c(-c5cccc(O[C@@H]6O[C@H](CO)[C@@H](O)[C@H](O)[C@H]6O)c5)c5ccc([nH]5)c(-c5cccc(O[C@@H]6O[C@H](CO)[C@@H](O)[C@H](O)[C@H]6O)c5)c5nc(c(-c6cccc(O[C@@H]7O[C@H](CO)[C@@H](O)[C@H](O)[C@H]7O)c6)c6ccc3[nH]6)CC5)CC4)c2)[C@H](O)[C@@H](O)[C@@H]1O [Compound 10, 5,10,15,20-tetrakis[3-(β-D-glucopyranosyloxy)phenyl]-bacteriochlorin]	around 740 nm
